From US6699506B1, “Pharmaceutical composition with extended release of Milnacipran” (Pierre Fabre Medicament, priority 1996, dated 2004)
Values after ≈ are worked out from the molar mass of the structure shown.

What was measured:
noradrenaline = conditions: cited from earlier work
serotonin = conditions: cited from earlier work
dopamine = conditions: cited from earlier work
physchem = conditions: water, aqueous solubility

Row | SMILES | inhibition of the capture of noradrenaline (noradrenaline) | inhibition of the capture of serotonin (serotonin) | effect on dopamine (dopamine) | bioavailability (in vivo) [%] | half-life (in vivo) [h] | solubility (physchem) [mg/mL] | activity of isomeric forms (activity of the isomers)
1 | CCN(CC)C(=O)C1(c2ccccc2)CC1CN (stereo not shown) [Milnacipran] | mixed inhibition | mixed inhibition | no effect | > 85 | 7 to 9 | 800 (≈ 3250 mM) | 
2 | CCN(CC)C(=O)[C@@]1(c2ccccc2)C[C@H]1CN [dextrorotatory form] |  |  |  |  |  |  | more active than the levorotatory form
